Results from ChEMBL document CHEMBL1201862, “PubChem BioAssay data set” (2004).
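Each compound was tested at five concentrations against cells in 96-well plates for 48 hours. Here, GI50 denotes the concentration required for 50% inhibition of growth.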 Activity calls are given as the source filed them. No stated cut-off is given here; in the data, active = GI50 up to about 1.1 µM and inactive = higher.

How the values were obtained:
Test in all cases: growth of human tumour cells (NCI), 48 h
[1] = test system: SF-268
[2] = test system: SF-295
[3] = test system: OVCAR-4
[4] = test system: A498
[5] = test system: UO-31
[6] = test system: K562
[7] = test system: EKVX
[8] = test system: SNB-75
[9] = test system: UACC-257
[10] = test system: OVCAR-3
[11] = test system: A549
[12] = test system: LOX IMVI
[13] = test system: SK-OV-3
[14] = test system: SNB-19
[15] = test system: SF-539
[16] = test system: HL-60
[17] = test system: NCI-H226

| SMILES | GI50 [1] | GI50 [2] | GI50 [3] | GI50 [4] | GI50 [5] | GI50 [6] | GI50 [7] | GI50 [8] | GI50 [9] | GI50 [10] | GI50 [11] | GI50 [12] | GI50 [13] | GI50 [14] | GI50 [15] | GI50 [16] | GI50 [17] |
| --- | --- | --- | --- | --- | --- | --- | --- | --- | --- | --- | --- | --- | --- | --- | --- | --- | --- |
| O=C(O)CCC(NC(=O)c1ccccc1)C(=O)O (configuration not stated) | > 100 µM (inactive) | > 100 µM (inactive) | > 100 µM (inactive) | > 100 µM (inactive) | > 100 µM (inactive) | > 100 µM (inactive) | > 100 µM (inactive) | > 100 µM (inactive) | > 100 µM (inactive) | > 100 µM (inactive) | > 100 µM (inactive) | > 100 µM (inactive) | > 100 µM (inactive) | > 100 µM (inactive) | > 100 µM (inactive) |  |  |
| Cn1c2cccc3nnc4cccc(c4c32)n1C | > 100 µM (inactive) | > 100 µM (inactive) | > 100 µM (inactive) | > 100 µM (inactive) | > 100 µM (inactive) | > 100 µM (inactive) | > 100 µM (inactive) |  | > 100 µM (inactive) | > 100 µM (inactive) | > 100 µM (inactive) | > 100 µM (inactive) |  | > 100 µM (inactive) | > 100 µM (inactive) | > 100 µM (inactive) | 45.8 µM (inactive) |
| CC(=O)Oc1cc(OC(C)=O)c2cc3c(cc2c1OC(C)=O)C(=O)C1(CCCC1)C3=O | 22.5 µM (inactive) | 16.3 µM (inactive) | 18.6 µM (inactive) |  | 16.3 µM (inactive) | 14.7 µM (inactive) | 20 µM (inactive) | 14.2 µM (inactive) |  | 19.3 µM (inactive) | 19.1 µM (inactive) | 14.3 µM (inactive) | 17.6 µM (inactive) |  |  | 20.8 µM (inactive) |  |
| CCOC(=O)c1cnc2c(ccc3ncccc32)c1NCCCN(CC)CC | 90.6 µM (inactive) | 86.7 µM (inactive) | 30 µM (inactive) | > 100 µM (inactive) | 76.4 µM (inactive) | 27.2 µM (inactive) | > 100 µM (inactive) |  | > 100 µM (inactive) | > 100 µM (inactive) | > 100 µM (inactive) | 17.5 µM (inactive) | > 100 µM (inactive) | 50.1 µM (inactive) | > 10 µM (inactive) | 14.6 µM (inactive) | > 100 µM (inactive) |
| CCCC1C(=O)C(CC)Cc2c(OC)ccc(OC)c21 (configuration not stated) | > 100 µM (inactive) | > 100 µM (inactive) | > 100 µM (inactive) |  | > 100 µM (inactive) | > 100 µM (inactive) | > 100 µM (inactive) | > 100 µM (inactive) | > 100 µM (inactive) | > 100 µM (inactive) | > 100 µM (inactive) | > 100 µM (inactive) | > 100 µM (inactive) | > 100 µM (inactive) | > 100 µM (inactive) | > 100 µM (inactive) | > 100 µM (inactive) |
| O=c1c2ccc3cccc4c(=O)cc(c5ccccc15)-c2c34 | > 100 µM (inactive) | > 100 µM (inactive) | > 100 µM (inactive) | > 100 µM (inactive) | > 100 µM (inactive) | 54.5 µM (inactive) | > 100 µM (inactive) | > 100 µM (inactive) | > 100 µM (inactive) | 28.2 µM (inactive) | > 100 µM (inactive) | 29.2 µM (inactive) | > 100 µM (inactive) | > 100 µM (inactive) |  | 43.9 µM (inactive) | > 100 µM (inactive) |
| COc1cc(C)c2c(c1)CN1CN2Cc2cc(OC)cc(C)c21 | 48.1 µM (inactive) | 52.4 µM (inactive) | 32.8 µM (inactive) |  | 33.1 µM (inactive) | 46.9 µM (inactive) | 32.7 µM (inactive) | 11.2 µM (inactive) |  | 25.5 µM (inactive) | 96.4 µM (inactive) | 66.2 µM (inactive) | > 100 µM (inactive) | < 0.01 µM (active) | > 100 µM (inactive) | 21.4 µM (inactive) | 49.5 µM (inactive) |
| Cc1ccc(C)c(N2C/C(=N\NC(=O)CC#N)C(c3nc4ccccc4s3)C(=O)C2=O)c1 (configuration not stated) | > 100 µM (inactive) | > 100 µM (inactive) | > 100 µM (inactive) | > 100 µM (inactive) | > 100 µM (inactive) |  | > 100 µM (inactive) | > 100 µM (inactive) | > 100 µM (inactive) | > 100 µM (inactive) | > 100 µM (inactive) |  | > 100 µM (inactive) | > 100 µM (inactive) |  | > 100 µM (inactive) | > 100 µM (inactive) |
| COc1ccc([C@@]2(O)c3c(ccc(O)c3OC)[C@H]2OC)c(OC)c1 | 75.9 µM (inactive) | 29.2 µM (inactive) | 67.9 µM (inactive) | > 100 µM (inactive) | 69.3 µM (inactive) | 36.5 µM (inactive) | > 100 µM (inactive) | 39.6 µM (inactive) | > 100 µM (inactive) | 68.2 µM (inactive) | 85.1 µM (inactive) |  | 28.6 µM (inactive) | > 100 µM (inactive) |  | 31.6 µM (inactive) | > 100 µM (inactive) |
| O=C(NC1C2CC3CC(C2)CC1C3)c1ccncn1 (configuration not stated) | > 100 µM (inactive) | > 100 µM (inactive) | > 100 µM (inactive) | > 100 µM (inactive) | > 100 µM (inactive) | > 100 µM (inactive) | > 100 µM (inactive) | > 100 µM (inactive) | > 100 µM (inactive) | > 100 µM (inactive) | > 100 µM (inactive) |  |  | > 100 µM (inactive) | > 100 µM (inactive) | > 100 µM (inactive) | > 100 µM (inactive) |
| Cc1cccc(C)c1NC(=O)C1=NC(=S)NC(c2ccccc2)C1c1nc2ccccc2s1 (configuration not stated) | > 100 µM (inactive) | > 100 µM (inactive) | > 100 µM (inactive) | > 100 µM (inactive) | > 100 µM (inactive) | > 100 µM (inactive) | > 100 µM (inactive) | > 100 µM (inactive) | > 100 µM (inactive) | > 100 µM (inactive) | > 100 µM (inactive) |  | > 100 µM (inactive) | > 100 µM (inactive) | > 100 µM (inactive) | > 100 µM (inactive) | > 100 µM (inactive) |
| N#CCc1cccc(CC#N)c1Br | 86.5 µM (inactive) | > 100 µM (inactive) | > 100 µM (inactive) |  | > 100 µM (inactive) | > 100 µM (inactive) | > 100 µM (inactive) | > 100 µM (inactive) | > 100 µM (inactive) | > 100 µM (inactive) | > 100 µM (inactive) | > 100 µM (inactive) | > 100 µM (inactive) | > 100 µM (inactive) | > 100 µM (inactive) | > 100 µM (inactive) | > 100 µM (inactive) |
| C[C@@H](CC(O)C1OC1(C)C)[C@@H]1CC[C@]2(C)C3=CCC4C(C)(C)C(O)CC[C@]4(C)C3CCC12C (some centres not stated) | 26.3 µM (inactive) | 13.7 µM (inactive) | 20.8 µM (inactive) | 26.5 µM (inactive) | 18.6 µM (inactive) | 6.84 µM (inactive) | 39.6 µM (inactive) |  | 16.3 µM (inactive) | 34.7 µM (inactive) | 12.7 µM (inactive) | 24.8 µM (inactive) | 19.8 µM (inactive) | 37.6 µM (inactive) | 17.9 µM (inactive) | 4.14 µM (inactive) | 18.5 µM (inactive) |
